Laboratory results: patent US20190000803A1, “CHONDROITIN COMPLEXES FOR TRANSCUTANEOUS ABSORPTION” (Altergon S.A., priority 2012, published 2019)
Each block holds one compound with its values, some of them ahead of it.

Tests used:
[1] = Dialysis equilibrium study of diclofenac release from diclofenac-chondroitin complexes; format: physicochemical; settings: 2 KDa cut-off, 100 mL in 2 L water, 25° C.
[2] = Absorption of ketorolac by human skin using the Franz cell; format: in vitro ADME; settings: compared with absence of the polysaccharide
Procedure: 10 mg of the following gels was applied to the skin surface: a) tromethamine ketorolac salt gel (per gram of gel: 100 mg of polyethylene glycol, 1 mg of benzyl alcohol, 200 mg of tromethamine ketorolac salt and water q.s. for 1 g, dissolved at 50° C. under vigorous stirring); b) tromethamine ketorolac salt-chondroitin gel (0.535 moles of tromethamine ketorolac salt/mole of disaccharide chondroitin units; per gram of gel: 100 mg of polyethylene glycol, 1 mg of benzyl alcohol, 200 mg of chondroitin MW 62 KDa, 100 mg of tromethamine ketorolac salt and water q.s. for 1 g, dissolved at 50° C. under vigorous stirring).
The quantity of ketorolac present in the skin washing solution (unabsorbed part), in the enzymatic tissue digestate (part absorbed by the skin) and in the receptor fluid (part that crossed the skin structure) was determined quantitatively by HPLC. The tests were conducted on a Waters model 746 (USA) HPLC, equipped with a μ-bondapack C18 column (150×4.6 millimetres). A solution of acetonitrile, deionised water and orthophosphoric acid (45:54.5:0.5 in vol.), with a final pH of 3.5, was used as mobile phase, operating with a flow rate of 1 mL/min. The eluate was monitored at 280 nm. Quantitation was performed by measuring the ratios between the peak area of ketorolac and the peak area of the internal standard, consisting of a naproxen solution with a known titre.

[3] = Absorption of diclofenac by human skin using the Franz cell; format: in vitro ADME; settings: compared with absence of the polysaccharide or presence of chondroitin sulphate
Procedure: The skin was frozen to −20° C. immediately after removal, and kept at that temperature until the time of use. Before being placed in the Franz cells, the frozen skin was cleaned of subcutaneous fat, so that only the stratum corneum, the epidermis and the dermis were used, and cut to a size suitable for positioning in the Franz cell, with the stratum corneum facing upwards. Before the study began, the cell was maintained at 30° C. for 10 h with continual stirring of the receptor solution consisting of 10 mL of HBSS (Hank's Buffered Saline Solutions). The surface on which the formulation was deposited measured about 3 cm^2. Before application of the gel in the cells, the receptor solution was replaced, taking care to eliminate all air bubbles between skin and solution.
At the indicated times the receptor phase was recovered and the skin surface was washed thoroughly to remove all the unabsorbed gel. The skin was recovered, homogenised and digested for 10 h under stirring at 30° C. with collagenase (5,200 I/g of skin) in 10 mM of phosphate buffer pH 7.4. At the end of the incubation, 0.4 volumes of ethanol were added and the mixture was centrifuged at 10,000 rpm for 20 min. […] The eluate was monitored at 276 nm.

[4] = In vivo transcutaneous absorption of diclofenac gels in nude mice; design: species or system Charles River nude mice; settings: conclusion from tables 8-10
Procedure: During the study the animals were kept in individual cages, with unrestricted access to food and water.
The animals were euthanised 1, 5 and 10 h after the application, as reported in the trial design in table 7. Immediately after euthanisation the gel application area was washed thoroughly to discriminate between the radioactivity applied and the radioactivity absorbed by the skin. The treated skin areas, liver and blood were recovered from the euthanised animals, and the samples were weighed and frozen immediately after removal. The urine of the animals was recovered from the cages by washing.

[5] = Topical absorption and distribution of [3H]chondroitin gels in nude mice; format: in vivo, Charles River nude mice
Procedure: 60 five-month-old Charles River nude mice of both sexes were used as experimental model to evaluate the transcutaneous absorption of chondroitin. The animals were randomised into 12 groups of 5 which, as reported in the study design in table 1, were treated with 50 mg of [^3H]chondroitin gel with different MWs, prepared as described in example 1. During the study the animals were kept in individual cages, with unrestricted access to food and water.
The animals were euthanised 1, 5, 10 and 20 h after the application, as reported in the trial design in table 1. Immediately after euthanisation the gel application area was thoroughly washed until no detectable traces of radioactivity remained in the washing water, in order to discriminate between the radioactivity applied and the radioactivity absorbed by the skin. The treated skin areas, liver and blood were recovered from the euthanised animals, and the samples were weighed and frozen immediately after removal. The urine of the animals was recovered from the cages by washing.
Skin, liver and blood samples (150-200 mg) were solubilised in Soluene […] at ambient temperature. The radioactivity was measured by liquid-phase scintillation on the solubilised samples and the urine.

[6] = Franz cell, human skin; cited from earlier work

- % OD275 present in the dialysis medium ([1]; 1 h): 85%
- % OD275 present in the dialysis medium ([1]; 2 h): 94%
- % OD275 present in the dialysis medium ([1]; 4 h): 96%
- % OD275 present in the dialysis medium ([1]; 8 h): 95%
- % OD275 present in the dialysis medium ([1]; 16 h): 96%
Compound: O=C(O)Cc1ccccc1Nc1c(Cl)cccc1Cl [Diclofenac only, 2-(2-[2,6-dichlorophenylamino]phenyl) ethanoic acid]

- absorption of ketorolac in the presence of chondroitin [2]: increases significantly
- absorption of diclofenac in the presence of chondroitin [3]: increases significantly
- radioactivity in skin, % of dose applied ([5]; skin, 1 h after topical application of 50 mg gel): about 50 % of dose applied
- radioactivity in urine, % of dose applied ([5]; urine, 20 h): about 25 % of dose applied
Compound: chondroitin
- acts as transdermal carrier of diclofenac [4]: acts as an efficient transdermal carrier of diclofenac

- acts as transdermal carrier of diclofenac [4]: not
Compound: chondroitin sulphate
- ability to transport diclofenac and ibuprofen in the skin [6]: are not

Compound: heparin
- ability to transport diclofenac and ibuprofen in the skin [6]: are not

Compound: hyaluronic acid
- ability to transport diclofenac and ibuprofen in the skin [6]: able to transport diclofenac and ibuprofen in the skin
